inhibition, IC50 and LD50 data for two molecules are collected here from ChEMBL document CHEMBL1154381, “Mining biologically-active molecules for inhibitors of fatty acid amide hydrolase (FAAH): identification of phenmedipham and amperozide as FAAH inhibitors” (Bioorg Med Chem Lett, 2009).

Data set [1] has as its target T1, Fatty-acid amide hydrolase 1 (Rattus norvegicus) (UniProt P97612).
T1 sequence (whole entry): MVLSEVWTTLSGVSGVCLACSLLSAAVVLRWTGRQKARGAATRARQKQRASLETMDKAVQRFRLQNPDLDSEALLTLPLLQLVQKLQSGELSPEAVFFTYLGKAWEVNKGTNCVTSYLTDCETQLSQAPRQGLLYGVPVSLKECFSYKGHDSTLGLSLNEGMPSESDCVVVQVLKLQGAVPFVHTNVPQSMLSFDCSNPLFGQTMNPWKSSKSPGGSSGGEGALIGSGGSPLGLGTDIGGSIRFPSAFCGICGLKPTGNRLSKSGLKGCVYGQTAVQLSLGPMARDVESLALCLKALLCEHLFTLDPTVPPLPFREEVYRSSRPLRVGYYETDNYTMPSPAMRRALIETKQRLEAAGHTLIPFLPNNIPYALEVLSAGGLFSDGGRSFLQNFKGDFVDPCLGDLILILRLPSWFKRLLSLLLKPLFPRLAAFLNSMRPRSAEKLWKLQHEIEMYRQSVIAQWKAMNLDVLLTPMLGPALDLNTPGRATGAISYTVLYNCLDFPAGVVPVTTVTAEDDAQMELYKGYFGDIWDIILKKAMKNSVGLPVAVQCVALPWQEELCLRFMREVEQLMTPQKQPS
The data set is described as follows: Inhibition of rat FAAH at 10 uM.

For data set [2], the target named is T2, Fatty-acid amide hydrolase 1 (Homo sapiens, UniProt O00519).
T2 sequence (O00519 whole entry): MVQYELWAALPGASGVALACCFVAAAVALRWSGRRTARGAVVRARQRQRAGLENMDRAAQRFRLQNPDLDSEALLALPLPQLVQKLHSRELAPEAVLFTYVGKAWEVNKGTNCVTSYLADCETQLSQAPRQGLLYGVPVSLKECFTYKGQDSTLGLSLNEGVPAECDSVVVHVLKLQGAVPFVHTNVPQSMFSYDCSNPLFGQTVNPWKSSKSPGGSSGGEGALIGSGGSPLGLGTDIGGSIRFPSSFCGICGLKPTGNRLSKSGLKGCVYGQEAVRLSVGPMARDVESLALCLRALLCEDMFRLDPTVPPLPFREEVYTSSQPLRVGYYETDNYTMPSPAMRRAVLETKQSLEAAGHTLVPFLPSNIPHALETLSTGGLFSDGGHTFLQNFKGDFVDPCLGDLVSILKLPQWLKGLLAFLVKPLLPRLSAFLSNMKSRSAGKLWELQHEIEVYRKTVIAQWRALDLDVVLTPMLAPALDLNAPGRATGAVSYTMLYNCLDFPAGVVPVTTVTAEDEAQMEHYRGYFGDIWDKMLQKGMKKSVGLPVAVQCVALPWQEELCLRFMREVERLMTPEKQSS
Briefly: Inhibition of human FAAH.

The target of data set [3] is T2, Fatty-acid amide hydrolase 1. Briefly: Inhibition of human FAAH-mediated hydrolysis of [3H]AEA.
Data set [4] addresses T3, Fatty-acid amide hydrolase 1 (Rattus norvegicus, UniProt P97612).
T3 sequence (P97612 whole entry): T1 sequence (whole entry)
Briefly: Inhibition of rat FAAH.

Data set [5] in a line: Toxicity in rat. In kind it is organism-based. The following applies: in vivo.

`CCNC(=O)N1CCN(CCCC(c2ccc(F)cc2)c2ccc(F)cc2)CC1` [AMPEROZIDE]: the inhibition in data set [1] is 50%. In addition, the IC50 amounted to 1340 nM in data set [2] and 455 nM in data set [3].
Take `COC(=O)Nc1cccc(OC(=O)Nc2cccc(C)c2)c1`: the values for the IC50 in data set [4], in data set [2] and in data set [3] were 77 nM, 377 nM and 152 nM, respectively. Further, in data set [5], the LD50 is over 8000 mg/kg.

Usually inhibition stands for the percentage by which the read-out fell short of the control. By IC50 is commonly meant the concentration needed to halve the response being measured. Read a high IC50 as lower potency. Usually LD50 stands for the dose expected to kill half of the subjects tested. High values mean lower toxicity, low ones greater toxicity.
